Article PMC5775429, “LY2087101 and dFBr share transmembrane binding sites in the (α4)3(β2)2 Nicotinic Acetylcholine Receptor” (Scientific Reports, 2018)
Read-outs that look alike come from different tables or passages of the source. Marks after values point to notes of the source that are not given here.

What was measured:
[1] = molecular target: T1, (α4E92I)3(β2)2 nAChR (Homo sapiens, UniProt P43681, E92I); design: method as in PMID 28446611; conditions: 10 µM ACh + 1 µM dFBr vs 10 µM ACh alone; data reported previously ref 29; cited from earlier work
T1 sequence (P43681 29-627 E92I limits assumed): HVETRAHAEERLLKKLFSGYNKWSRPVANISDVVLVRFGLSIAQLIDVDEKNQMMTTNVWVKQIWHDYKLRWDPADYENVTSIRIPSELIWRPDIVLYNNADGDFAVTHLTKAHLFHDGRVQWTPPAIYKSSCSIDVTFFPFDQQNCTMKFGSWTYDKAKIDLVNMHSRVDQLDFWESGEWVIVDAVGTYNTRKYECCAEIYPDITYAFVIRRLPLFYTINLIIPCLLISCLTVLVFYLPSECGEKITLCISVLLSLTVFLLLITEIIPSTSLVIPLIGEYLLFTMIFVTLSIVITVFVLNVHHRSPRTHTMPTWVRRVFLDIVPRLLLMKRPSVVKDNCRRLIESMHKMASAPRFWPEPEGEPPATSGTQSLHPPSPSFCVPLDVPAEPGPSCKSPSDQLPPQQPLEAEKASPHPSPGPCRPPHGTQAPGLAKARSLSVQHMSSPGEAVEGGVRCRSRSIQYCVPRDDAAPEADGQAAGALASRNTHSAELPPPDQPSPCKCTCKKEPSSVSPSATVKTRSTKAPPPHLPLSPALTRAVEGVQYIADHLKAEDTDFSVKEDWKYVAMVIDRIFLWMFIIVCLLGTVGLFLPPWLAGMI
T1 sequence (P17787 26-502 partner): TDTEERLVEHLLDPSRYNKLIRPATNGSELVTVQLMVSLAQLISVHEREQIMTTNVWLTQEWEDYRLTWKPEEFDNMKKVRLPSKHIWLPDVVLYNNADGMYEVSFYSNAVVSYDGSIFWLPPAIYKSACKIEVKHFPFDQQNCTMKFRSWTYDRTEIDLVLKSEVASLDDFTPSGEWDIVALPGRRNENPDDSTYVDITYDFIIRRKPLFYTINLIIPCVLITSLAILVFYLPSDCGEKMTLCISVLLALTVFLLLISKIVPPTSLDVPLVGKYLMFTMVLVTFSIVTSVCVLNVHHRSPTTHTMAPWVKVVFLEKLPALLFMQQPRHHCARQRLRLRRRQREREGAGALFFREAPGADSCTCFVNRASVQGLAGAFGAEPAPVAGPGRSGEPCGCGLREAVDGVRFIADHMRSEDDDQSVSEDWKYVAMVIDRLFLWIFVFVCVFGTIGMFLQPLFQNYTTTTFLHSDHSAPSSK

[2] = molecular target: T2, (α4H142L)3(β2)2 nAChR (Homo sapiens, UniProt P43681, H142L); design: method as in PMID 28446611; conditions: 10 µM ACh + 1 µM dFBr vs 10 µM ACh alone; data reported previously ref 29; cited from earlier work
T2 sequence (P43681 29-627 H142L limits assumed): as the sequence (P43681 29-627 E92I limits assumed) above, with I64E, H114L counted along it
T2 sequence (P17787 26-502 partner): as the sequence (P17787 26-502 partner) above

[3] = molecular target: T3, (α4R148E)3(β2)2 nAChR (Homo sapiens, UniProt P43681, R148E); design: method as in PMID 28446611; conditions: 10 µM ACh + 1 µM dFBr vs 10 µM ACh alone; data reported previously ref 29; cited from earlier work
T3 sequence (P43681 29-627 R148E limits assumed): as the sequence (P43681 29-627 E92I limits assumed) above, with I64E, R120E counted along it
T3 sequence (P17787 26-502 partner): as the sequence (P17787 26-502 partner) above

[4] = molecular target: T1, (α4E92I)3(β2)2 nAChR; experiment: Two-electrode voltage-clamp of ACh-induced currents in Xenopus oocytes; format: cell-based; conditions: 10 µM ACh + 1 µM LY2087101 vs 10 µM ACh alone
Protocol: (§1) For amino acid substitutions within the α4 nAChR subunit, point mutations were introduced into pSP64ployA plasmid with cDNA encoding for human α4 nAChR subunit with mutagenic primer pairs using the Quick Change II Site-Directed Mutagenesis Kit (Agilent Technologies) then confirmed by DNA sequencing (GENEWIZ, LLC, South Plainfield, NJ). cRNA transcripts suitable for oocyte expression were prepared in vitro from linearized plasmids [α3 (BamH1), α4 (AseI), β2 (PvuII), β4 (XhoI)] using mMESSAGE mMACHINE high yield capped RNA transcription kits (Ambion) and purified on NucAway Spin column (Invitrogen). cRNA concentration was determined by spectroscopy (Concentration (ug/ul) = Abs260 * 40), aliquoted and stored at −80 °C until used.
(§2) Ovarian lobules were surgically harvested from oocytes-positive female Xenopus laevis (NASCO, Fort Atkinson, WI) according to an animal use protocol approved by the Texas A&M Health Sciences Center Institutional Animals Care and Use Committee. The Texas A&M Health Sciences Center Research Facility is registered as an animal research facility with the United States Department of Agriculture and is fully accredited by the American Association for Accreditation of Laboratory Animal Care (AAALAC). For oocytes defolliculation, ovarian lobes were treated with 3 mg/ml collagenase type 2 (Worthington Biomedical, Lakewood, NJ) in Ca + 2-free buffer (85 mM NaCl, 2.5 mM KCl, 1 mM MgCl2, 5 mM HEPES, pH 7.6). Collagenase treatment was allowed to proceed for 3 hours at room temperature with gentle shaking then oocytes were washed several times with buffer to remove collagenase then with ND96-gentamicine buffer. Healthy Stage V and VI oocytes were visually selected and maintained at 18 °C in modified ND96-gentamicine buffer (96 mM NaCl, 2 mM KCl, 1.8 mM CaCl2, 1 mM MgCl2, 5 mM HEPES, 50 µg/ml gentamicin, pH 7.6). Oocytes were injected with 50–100 ng of the desired nAChR subunits cRNA mix at ratios of 8α:1β or 1α:8β to express nAChRs with subunit stoichiometries of 3α:2β (low agonist sensitivity) or 2α:3β (high agonist sensitivity), respectively.
(§3) Two-electrode voltage clamp recording of ACh-induced responses of Xenopus oocytes were performed 24–72 h following injection of nAChR subunit cRNA mix to ensure adequate nAChRs expression. Xenopus oocytes were placed in a custom-made recording chamber that is connected to eight channels automated perfusion system (Warner Instruments) and voltage-clamped at −50 mV using Oocyte Clamp OC-725B (Warner Instruments). Oocytes were continuously perfused with recording buffer (100 mM NaCl, 2 mM KCl, 1 mM CaCl2, 0.8 mM MgCl2, 1 mM EGTA, 10 mM Hepes, pH 7.5) except during periods of drug applications. […] Currents were digitized using Digidata 1550 A (Axon Instruments) and peak currents were quantified using pCLAMP 10 (Axon Instruments) then normalized and analyzed using Excels 2010 (Microsoft corporation) and SigmaPlot 11.0 (Systat Software).

[5] = molecular target: (α4G67E)3(β2)2 nAChR (Homo sapiens, UniProt P43681, G67E); experiment: as above; format: cell-based; conditions: 10 µM ACh + 1 µM LY2087101 vs 10 µM ACh alone
Sequence of (α4G67E)3(β2)2 nAChR (P43681 29-627 G67E limits assumed): as the sequence (P43681 29-627 E92I limits assumed) above, with G39E, I64E counted along it
Sequence of (α4G67E)3(β2)2 nAChR (P17787 26-502 partner): as the sequence (P17787 26-502 partner) above
Protocol: as §1, §2, §3

[6] = molecular target: T2, (α4H142L)3(β2)2 nAChR; experiment: as above; format: cell-based; conditions: 10 µM ACh + 1 µM LY2087101 vs 10 µM ACh alone
Protocol: as §1, §2, §3

[7] = molecular target: (α4H94N)3(β2)2 nAChR (Homo sapiens, UniProt P43681, H94N); experiment: as above; format: cell-based; conditions: 10 µM ACh + 1 µM LY2087101 vs 10 µM ACh alone
Sequence of (α4H94N)3(β2)2 nAChR (P43681 29-627 H94N limits assumed): as the sequence (P43681 29-627 E92I limits assumed) above, with I64E, H66N counted along it
Sequence of (α4H94N)3(β2)2 nAChR (P17787 26-502 partner): as the sequence (P17787 26-502 partner) above
Protocol: as §1, §2, §3

[8] = molecular target: (α4L63I)3(β2)2 nAChR (Homo sapiens, UniProt P43681, L63I); experiment: as above; format: cell-based; conditions: 10 µM ACh + 1 µM LY2087101 vs 10 µM ACh alone
Sequence of (α4L63I)3(β2)2 nAChR (P43681 29-627 L63I limits assumed): as the sequence (P43681 29-627 E92I limits assumed) above, with L35I, I64E counted along it
Sequence of (α4L63I)3(β2)2 nAChR (P17787 26-502 partner): as the sequence (P17787 26-502 partner) above
Protocol: as §1, §2, §3

[9] = molecular target: (α4Q150T)3(β2)2 nAChR (Homo sapiens, UniProt P43681, Q150T); experiment: as above; format: cell-based; conditions: 10 µM ACh + 1 µM LY2087101 vs 10 µM ACh alone
Sequence of (α4Q150T)3(β2)2 nAChR (P43681 29-627 Q150T limits assumed): as the sequence (P43681 29-627 E92I limits assumed) above, with I64E, Q122T counted along it
Sequence of (α4Q150T)3(β2)2 nAChR (P17787 26-502 partner): as the sequence (P17787 26-502 partner) above
Protocol: as §1, §2, §3

[10] = molecular target: T3, (α4R148E)3(β2)2 nAChR; experiment: as above; format: cell-based; conditions: 10 µM ACh + 1 µM LY2087101 vs 10 µM ACh alone
Protocol: as §1, §2, §3

[11] = molecular target: (α4R65H)3(β2)2 nAChR (Homo sapiens, UniProt P43681, R65H); experiment: as above; format: cell-based; conditions: 10 µM ACh + 1 µM LY2087101 vs 10 µM ACh alone
Sequence of (α4R65H)3(β2)2 nAChR (P43681 29-627 R65H limits assumed): as the sequence (P43681 29-627 E92I limits assumed) above, with R37H, I64E counted along it
Sequence of (α4R65H)3(β2)2 nAChR (P17787 26-502 partner): as the sequence (P17787 26-502 partner) above
Protocol: as §1, §2, §3

[12] = molecular target: (α4T152I)3(β2)2 nAChR (Homo sapiens, UniProt P43681, T152I); experiment: as above; format: cell-based; conditions: 10 µM ACh + 1 µM LY2087101 vs 10 µM ACh alone
Sequence of (α4T152I)3(β2)2 nAChR (P43681 29-627 T152I limits assumed): as the sequence (P43681 29-627 E92I limits assumed) above, with I64E, T124I counted along it
Sequence of (α4T152I)3(β2)2 nAChR (P17787 26-502 partner): as the sequence (P17787 26-502 partner) above
Protocol: as §1, §2, §3

Compound	R, potentiation ratio (PR) [1]	R, potentiation ratio (PR) [2]	R, potentiation ratio (PR) [3]	R, potentiation ratio (PR) [4]	R, potentiation ratio (PR) [5]	R, potentiation ratio (PR) [6]	R, potentiation ratio (PR) [7]	R, potentiation ratio (PR) [8]	R, potentiation ratio (PR) [9]	R, potentiation ratio (PR) [10]	R, potentiation ratio (PR) [11]	R, potentiation ratio (PR) [12]
C=CC(C)(C)c1[nH]c2cc(Br)ccc2c1CCNC [dFBr]	9.3 ± 1.8^a	8.1 ± 0.6^a	10.3 ± 2.4^a									
Cc1nc(Nc2ccc(F)cc2)sc1C(=O)c1ccsc1 [LY2087101, [2-[(4-Fluorophenyl)amino]-4-methyl-5-thiazolyl]-3-thienylmethanone]				10.9 ± 2.6	5.2 ± 0.7	8.7 ± 0.5	5.2 ± 1.0	4.3 ± 0.4	4.3 ± 0.2	11.1 ± 1.2	7.4 ± 1.3	4.3 ± 1.3
